Data from PubChem BioAssay AID328 (DTP/NCI, 2004).
Values joined by “and” are separate entries in the source; they are usually repeats but may differ in a detail not shown here. Identical values can stand only once. Toxic doses and inconclusive results are not listed. Rule for the calls: active = survival T/C of 150% or more; inactive = T/C below 125% in these data.

Test system: BDF1 mice, P388 leukemia ip, median survival T/C
Experiment: NCI In Vivo Anticancer Drug Screen. Data for tumor model P388 Leukemia (intraperitoneal) in B6D2F1 (BDF1) mice
Details: endpoint: median survival time, higher = longer survival
Summary of the method: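 Vehicle-dosed animals serve as the reference; survival of compound-dosed, tumour-implanted mice is divided by it.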

[1] = dose: 50.0 mg/kg/injection, schedule: Q01DX009 (ip), vehicle: saline with Tween-80
[2] = dose: 100.0 mg/kg/injection, schedule: Q01DX009 (ip), vehicle: saline with Tween-80
[3] = dose: 100.0 mg/kg/injection, schedule: Q04DX003 (ip), vehicle: saline with Tween-80
[4] = dose: 200.0 mg/kg/injection, schedule: Q01DX009 (ip), vehicle: saline with Tween-80
[5] = dose: 200.0 mg/kg/injection, schedule: Q04DX003 (ip), vehicle: saline with Tween-80
[6] = dose: 400.0 mg/kg/injection, schedule: Q01DX009 (ip), vehicle: saline with Tween-80
[7] = dose: 100.0 mg/kg/injection, schedule: Q01DX009 (ip), vehicle: saline
[8] = dose: 200.0 mg/kg/injection, schedule: Q01DX009 (ip), vehicle: saline
[9] = dose: 50.0 mg/kg/injection, schedule: Q04DX003 (ip), vehicle: saline with Tween-80
[10] = dose: 100.0 mg/kg/injection, schedule: Q04DX003 (ip), vehicle: Klucel (hydroxypropylcellulose) (HPC)
[11] = dose: 200.0 mg/kg/injection, schedule: Q04DX003 (ip), vehicle: Klucel (hydroxypropylcellulose) (HPC)
[12] = dose: 400.0 mg/kg/injection, schedule: Q04DX003 (ip), vehicle: Klucel (hydroxypropylcellulose) (HPC)
[13] = dose: 25.0 mg/kg/injection, schedule: Q04DX003 (ip), vehicle: saline
[14] = dose: 50.0 mg/kg/injection, schedule: Q04DX003 (ip), vehicle: saline
[15] = dose: 12.5 mg/kg/injection, schedule: Q01DX009 (ip), vehicle: saline with Tween-80
[16] = dose: 25.0 mg/kg/injection, schedule: Q01DX009 (ip), vehicle: saline with Tween-80

Measured: T/C

Cc1ccc(S(=O)(=O)N(C)c2cc(Cl)c(C(N)=O)c(Cl)c2)cc1
inactive: dose: 6.25 mg/kg/injection, schedule: Q01DX001 (ip), vehicle: saline sonified 95 % of control | dose: 12.5 mg/kg/injection, schedule: Q01DX001 (ip), vehicle: saline sonified 100 % of control | dose: 25.0 mg/kg/injection, schedule: Q01DX001 (ip), vehicle: saline sonified 100 % of control | [1] 112 % of control | [2] 95 % of control | [3] 105 % of control | [4] 114 % of control | [5] 97 % of control | [6] 95 % of control | dose: 400.0 mg/kg/injection, schedule: Q04DX003 (ip), vehicle: saline with Tween-80 106 % of control

CCOC(=O)C1(C(=O)OCC)C2CC=CCC21 (stereo not given)
inactive: [7] 95 % of control | [8] 100 % of control | dose: 400.0 mg/kg/injection, schedule: Q01DX009 (ip), vehicle: saline 100 % of control

[O-][N+](=Nc1cccc(Cl)c1)c1cccc(Cl)c1
inactive: [1] 93 % of control | dose: 66.0 mg/kg/injection, schedule: Q01DX009 (ip), vehicle: saline with Tween-80 89 % of control | [2] 93 % of control | dose: 150.0 mg/kg/injection, schedule: Q01DX009 (ip), vehicle: saline with Tween-80 90 % of control | [4] 94 % of control

O=C(NC(=S)Nc1ccccc1C(=O)O)c1ccccc1
inactive: [9] 104 % of control | [3] 100 % of control | [5] 90 % of control

Nc1ccc(OCc2ccc(C(=O)Nc3cccc(S(=O)(=O)F)c3)cc2)c(Cl)c1
inactive: [2] 91 % of control | [10] 100 % of control | [4] 91 % of control | [11] 100 % of control | [6] 100 % of control | [12] 100 % of control

COc1ccc(-c2cc(=O)c3c(O)c(OC)c(O)cc3o2)cc1
inactive: dose: 10.0 mg/kg/injection, schedule: Q01DX010 (ip), vehicle: carboxymethylcellulose (CMC) 95 % of control | dose: 20.0 mg/kg/injection, schedule: Q01DX010 (ip), vehicle: carboxymethylcellulose (CMC) 90 % of control | dose: 80.0 mg/kg/injection, schedule: Q01DX010 (ip), vehicle: carboxymethylcellulose (CMC) 95 % of control

O=C(c1cc(C(F)(F)F)cc(C(F)(F)F)c1)N1CC1
inactive: dose: 3.12 mg/kg/injection, schedule: Q01DX009 (ip), vehicle: water 100 % of control | dose: 6.25 mg/kg/injection, schedule: Q01DX009 (ip), vehicle: water 105 % of control | dose: 12.5 mg/kg/injection, schedule: Q01DX009 (ip), vehicle: water 114 % of control | dose: 25.0 mg/kg/injection, schedule: Q01DX009 (ip), vehicle: water 100 % of control | dose: 50.0 mg/kg/injection, schedule: Q01DX009 (ip), vehicle: water 110 % of control

CC(=O)OCC(=O)[C@@]1(O)CC[C@H]2[C@@H]3C[C@H](F)C4=CC(=O)CC[C@]4(C)[C@H]3C(=O)C[C@@]21C
inactive: dose: 100.0 mg/kg/injection, schedule: Q01DX009 (ip), vehicle: other 100 % of control

CC(=O)NC1(C(=O)O)CSSC1
inactive: dose: 12.5 mg/kg/injection, schedule: Q01DX005 (ip), vehicle: saline 107 % of control | dose: 25.0 mg/kg/injection, schedule: Q01DX005 (ip), vehicle: saline 106 % of control | [13] 91 % of control | dose: 50.0 mg/kg/injection, schedule: Q01DX005 (ip), vehicle: saline 104 % of control | [14] 97 % of control | dose: 100.0 mg/kg/injection, schedule: Q01DX005 (ip), vehicle: saline 100 % of control | dose: 100.0 mg/kg/injection, schedule: Q04DX003 (ip), vehicle: saline 118 % of control | dose: 200.0 mg/kg/injection, schedule: Q01DX005 (ip), vehicle: saline 104 % of control | dose: 200.0 mg/kg/injection, schedule: Q04DX003 (ip), vehicle: saline 114 % of control | dose: 400.0 mg/kg/injection, schedule: Q01DX005 (ip), vehicle: saline 97 % of control | dose: 400.0 mg/kg/injection, schedule: Q04DX003 (ip), vehicle: saline 123 % of control

O=C(C(=O)C(Br)Br)C(Br)Br
inactive: dose: 6.25 mg/kg/injection, schedule: Q01DX009 (ip), vehicle: DMSO 97 % of control

O=C(Nc1cccc(S(=O)(=O)F)c1)c1ccc(COc2ccc([N+](=O)[O-])cc2Cl)cc1
inactive: [2] 91 % of control | [4] 91 % of control

CC(=O)Nc1c([N+](=O)[O-])ccc(Cl)c1Cl
inactive: dose: 25.0 mg/kg/injection, schedule: Q01DX009 (ip), vehicle: Klucel (hydroxypropylcellulose) (HPC) 104 % of control | dose: 50.0 mg/kg/injection, schedule: Q01DX009 (ip), vehicle: Klucel (hydroxypropylcellulose) (HPC) 87 % of control | dose: 100.0 mg/kg/injection, schedule: Q01DX009 (ip), vehicle: Klucel (hydroxypropylcellulose) (HPC) 100 % of control | [10] 100 % of control

CC(N)COCc1ccccc1 (stereo not given)
inactive: [13] 104 % of control | [14] 95 % of control

COc1ccc(CC(=O)NCCc2ccccc2)cc1OC
inactive: [15] 112 % of control | dose: 12.5 mg/kg/injection, schedule: Q04DX003 (ip), vehicle: saline with Tween-80 100 % of control | [16] 104 % of control | dose: 25.0 mg/kg/injection, schedule: Q04DX003 (ip), vehicle: saline with Tween-80 100 % of control | [1] 110 % of control | [9] 109 % of control | [3] 99 % of control and 100 % of control

COC(=O)C1CCCC23CC(CC12)C(C)(C)C3Br (stereo not given)
inactive: [10] 95 % of control | [11] 100 % of control | [12] 90 % of control

CCCC#CCOCC(O)CCl (stereo not given)
inactive: [7] 104 % of control | [3] 104 % of control | [8] 109 % of control | [5] 108 % of control

Clc1cccc(N=c2cc3oc4ccccc4nc-3cc2Nc2cccc(Cl)c2)c1
inactive: [15] 96 % of control | [16] 99 % of control | [1] 93 % of control

CO[C@@]12[C@H](COC(N)=O)C3=C(C(=O)C(C)=C(N)C3=O)N1C[C@@H]1N[C@@H]12
active: dose: 0.13 mg/kg/injection, schedule: Q01DX010 (ip), vehicle: water 168 % of control | dose: 0.25 mg/kg/injection, schedule: Q01DX010 (ip), vehicle: saline 159 % of control and 161 % of control | dose: 0.25 mg/kg/injection, schedule: Q01DX010 (ip), vehicle: water 200 % of control | dose: 0.5 mg/kg/injection, schedule: Q01DX010 (ip), vehicle: saline 166 % of control and 213 % of control | dose: 0.5 mg/kg/injection, schedule: Q01DX010 (ip), vehicle: water 242 % of control | dose: 1.0 mg/kg/injection, schedule: Q01DX010 (ip), vehicle: saline 250 % of control and 180 % of control | dose: 1.0 mg/kg/injection, schedule: Q01DX010 (ip), vehicle: water 215 % of control | dose: 1.08 mg/kg/injection, schedule: Q04DX003 (ip), vehicle: saline 194 % of control and 196 % of control | dose: 1.8 mg/kg/injection, schedule: Q04DX003 (ip), vehicle: saline 243 % of control and 222 % of control | dose: 3.0 mg/kg/injection, schedule: Q04DX003 (ip), vehicle: saline 236 % of control and 244 % of control | dose: 4.0 mg/kg/injection, schedule: Q01DX001 (ip), vehicle: saline 157 % of control | dose: 6.0 mg/kg/injection, schedule: Q01DX001 (ip), vehicle: saline 176 % of control | dose: 8.0 mg/kg/injection, schedule: Q01DX001 (ip), vehicle: saline 176 % of control
inactive: dose: 0.03 mg/kg/injection, schedule: Q01DX010 (ip), vehicle: water 100 % of control | dose: 0.06 mg/kg/injection, schedule: Q01DX010 (ip), vehicle: saline 123 % of control | dose: 0.06 mg/kg/injection, schedule: Q01DX010 (ip), vehicle: water 115 % of control | dose: 2.0 mg/kg/injection, schedule: Q01DX010 (ip), vehicle: saline 90 % of control and 114 % of control | dose: 2.0 mg/kg/injection, schedule: Q01DX010 (ip), vehicle: water 105 % of control | dose: 5.0 mg/kg/injection, schedule: Q04DX003 (ip), vehicle: saline 90 % of control and 112 % of control

c1ccc2c(c1)Sc1ccccc1N2CCCN1CCCC1
inactive: dose: 6.25 mg/kg/injection, schedule: Q01DX009 (ip), vehicle: saline 104 % of control | dose: 12.5 mg/kg/injection, schedule: Q01DX009 (ip), vehicle: saline 104 % of control | dose: 25.0 mg/kg/injection, schedule: Q01DX009 (ip), vehicle: saline 122 % of control
